The values that follow are results of earlier work, collected in patent US12116608B2, “Extended metabolism methods for increasing and extracting metabolites from algae and microorganisms” (Synergraze Inc., priority 2022, dated 2024).

For this data set the following is noted: general description.

`BrC(Br)Br` [bromoform]: the solubility in water result was “soluble in water”.
